# Source: patent publication US20250145665A1, “MACROCYCLIC PEPTIDES USEFUL AS MODULATORS OF TNF ALPHA” (Bristol-Myers Squibb Company, priority 2023, published 2025)
# Starred links: 1 amine or outer side, 2 acyl side, 3 side chain; linkers in the order of their positions; H or OH if unused. Positions of bridges follow the written chain, without caps; N, C: chain ends. Non-standard residues stand in square brackets, D forms with d. Residues, ends and D or L forms follow the SMILES beside them. *: point of attachment. Bip(4'-NHCO-C6H4-3-CH2COOH) = N[C@@H](Cc1ccc(-c2ccc(NC(=O)c3cccc(CC(=O)O)c3)cc2)cc1)C(=O)O; Bip(4'-NHCO-C6H4-4-CH2COOH) = N[C@@H](Cc1ccc(-c2ccc(NC(=O)c3ccc(CC(=O)O)cc3)cc2)cc1)C(=O)O; dArg(Nω-CH2C6H4-3-CH2Gua) = N=C(N)NCc1cccc(CNC(=N)NCCC[C@@H](N)C(=O)O)c1; Bip(4'-NH) = O=C([C@H](Cc1ccc(-c2ccc(N[*:3])cc2)cc1)N[*:1])[*:2]; Bip(4'-CONHMe) = CNC(=O)c1ccc(-c2ccc(C[C@H](N)C(=O)O)cc2)cc1; Indazole3carbonyl(1-CH2COOH) = O=C(O)Cn1nc(C(=O)*)c2ccccc21; Bip(4'-COOH) = N[C@@H](Cc1ccc(-c2ccc(C(=O)O)cc2)cc1)C(=O)O; Bip(4'-NHAc) = CC(=O)Nc1ccc(-c2ccc(C[C@H](N)C(=O)O)cc2)cc1; Indole3carbonyl(1-CH2COOH) = O=C(O)Cn1cc(C(=O)*)c2ccccc21; X30 = N#Cc1ccc(CCNC(=N)NCCC[C@@H](N[*:1])C(=O)[*:2])cc1; X66 = N=C(NCCC[C@@H](N[*:1])C(=O)[*:2])NCc1ccc(F)c(F)c1; X7 = N=C(NCCC[C@@H](N[*:1])C(=O)[*:2])NCc1ccc2occc2c1; Ala(imidazol-2-yl) = N[C@@H](Cc1ncc[nH]1)C(=O)O; Ala(morpholin-4-yl) = N[C@@H](CN1CCOCC1)C(=O)O; Benzoyl(3-OCH2COOH) = O=C(O)COc1cccc(C(=O)*)c1; Bip = N[C@@H](Cc1ccc(-c2ccccc2)cc1)C(=O)O; Morpholine(3S-CO) = O=C(O)[C@@H]1COCCN1; Hyp = O=C(O)[C@@H]1C[C@@H](O)CN1; 2Pal = N[C@@H](Cc1ccccn1)C(=O)O; 2Thi = N[C@@H](Cc1cccs1)C(=O)O; Cha = N[C@@H](CC1CCCCC1)C(=O)O; Aze = O=C(O)[C@@H]1CCN1; Sar = CNCC(=O)O
# Molecular target: TNFα (Homo sapiens, UniProt P01375)
# Sequence (P01375 77-233 limits assumed): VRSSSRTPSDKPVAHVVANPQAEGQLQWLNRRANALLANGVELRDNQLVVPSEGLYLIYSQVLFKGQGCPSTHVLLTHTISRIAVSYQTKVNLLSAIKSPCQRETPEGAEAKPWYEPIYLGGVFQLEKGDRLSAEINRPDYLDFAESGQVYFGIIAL
# Experiment: TNF-Induced HEK-Blue Assay
# Assay type: cell-based
# Settings: not given
row,SMILES,IC50
1,CC(C)C[C@@H]1NC(=O)[C@H](Cc2ccc(O)cc2)NC(=O)[C@H](C(C)C)NC(=O)[C@@H]2CCCN2C(=O)[C@H](C(C)C)NC(=O)[C@@H](CCCNC(=N)NCc2cccc(CNC(=N)N)c2)NC(=O)[C@H](CC(=O)O)NC(=O)[C@@H]2CCCN2C(=O)CN(C)C(=O)[C@H](Cc2ccc(-c3ccc(NC(=O)c4nn(CC(=O)O)c5ccccc45)cc3)cc2)NC(=O)[C@H](Cc2ccc(-c3ccccc3)cc2)NC(=O)[C@H](CN2CCOCC2)NC(=O)CSC[C@@H](C(=O)NCC(N)=O)NC1=O [Example 622] ({CH2CO}-[Ala(morpholin-4-yl)][Bip][Bip(4'-NH)](Indazole3carbonyl(1-CH2COOH))[Sar]PD[dArg(Nω-CH2C6H4-3-CH2Gua)]VPVYLCG-NH2; thioether N-13),< 50 nM
2,CC(C)C[C@@H]1NC(=O)[C@H](Cc2ncc[nH]2)NC(=O)[C@H](C(C)C)NC(=O)[C@@H]2CCCN2C(=O)[C@H](C(C)C)NC(=O)[C@@H](CCCNC(=N)NCc2cccc(CNC(=N)N)c2)NC(=O)[C@H](CC(=O)O)NC(=O)[C@H](Cc2ccccn2)NC(=O)CN(C)C(=O)[C@H](Cc2ccc(-c3ccc(NC(=O)c4cn(CC(=O)O)c5ccccc45)cc3)cc2)NC(=O)[C@H](Cc2ccc(-c3ccc(C(=O)O)cc3)cc2)NC(=O)[C@H](CC2CCCCC2)NC(=O)CSC[C@@H](C(=O)NCC(N)=O)NC1=O [Example 557] ({CH2CO}-[Cha][Bip(4'-COOH)][Bip(4'-NH)](Indole3carbonyl(1-CH2COOH))[Sar][2Pal]D[dArg(Nω-CH2C6H4-3-CH2Gua)]VPV[Ala(imidazol-2-yl)]LCG-NH2; thioether N-13),< 50 nM
3,CC(C)C[C@@H]1NC(=O)[C@H](CCCNC(=N)N)NC(=O)[C@H](C(C)C)NC(=O)[C@@H]2CCCN2C(=O)[C@H](C(C)C)NC(=O)[C@@H](CCCNC(=N)NCc2ccc3occc3c2)NC(=O)[C@H](CC(=O)O)NC(=O)[C@@H]2CCCN2C(=O)CN(C)C(=O)[C@H](Cc2ccc(-c3ccc(NC(=O)c4nn(CC(=O)O)c5ccccc45)cc3)cc2)NC(=O)[C@H](Cc2ccc(-c3ccccc3)cc2)NC(=O)[C@H](CN2CCOCC2)NC(=O)CSC[C@@H](C(=O)NCC(N)=O)NC1=O [Example 449] ({CH2CO}-[Ala(morpholin-4-yl)][Bip][Bip(4'-NH)](Indazole3carbonyl(1-CH2COOH))[Sar]PD[X7]VPVRLCG-NH2; thioether N-13),< 50 nM
4,CC(C)C[C@@H]1NC(=O)[C@H](CCCNC(=N)N)NC(=O)[C@H](C(C)C)NC(=O)[C@@H]2CCCN2C(=O)[C@H](C(C)C)NC(=O)[C@@H](CCCNC(=N)NCc2ccc(F)c(F)c2)NC(=O)[C@H](CC(=O)O)NC(=O)[C@@H]2CCCN2C(=O)CN(C)C(=O)[C@H](Cc2ccc(-c3ccc(NC(=O)c4nn(CC(=O)O)c5ccccc45)cc3)cc2)NC(=O)[C@H](Cc2ccc(-c3ccccc3)cc2)NC(=O)[C@H](CN2CCOCC2)NC(=O)CSC[C@@H](C(=O)NCC(N)=O)NC1=O [Example 469] ({CH2CO}-[Ala(morpholin-4-yl)][Bip][Bip(4'-NH)](Indazole3carbonyl(1-CH2COOH))[Sar]PD[X66]VPVRLCG-NH2; thioether N-13),< 50 nM
5,CNC(=O)c1ccc(-c2ccc(C[C@@H]3NC(=O)[C@H](CN4CCOCC4)NC(=O)CSC[C@@H](C(=O)NCC(N)=O)NC(=O)[C@H](CC(C)C)NC(=O)[C@H](CCCNC(=N)N)NC(=O)[C@H](C(C)C)NC(=O)[C@@H]4CCCN4C(=O)[C@H](C(C)C)NC(=O)[C@@H](CCCNC(=N)NCCc4ccc(C#N)cc4)NC(=O)[C@H](CC(=O)O)NC(=O)[C@@H]4CCCN4C(=O)CN(C)C(=O)[C@H](Cc4ccc(-c5ccc(NC(=O)c6nn(CC(=O)O)c7ccccc67)cc5)cc4)NC3=O)cc2)cc1 [Example 430] ({CH2CO}-[Ala(morpholin-4-yl)][Bip(4'-CONHMe)][Bip(4'-NH)](Indazole3carbonyl(1-CH2COOH))[Sar]PD[X30]VPVRLCG-NH2; thioether N-13),< 50 nM

# Same assay, conditions: HEK-Blue-CD40L cells, NF-kB-driven secreted alkaline phosphatase reporter; TNFα 0.5 ng/ml; 18 h; read-out: TNF induced HEK-Blue assay IC50 value
row,SMILES,IC50
1,CC[C@H](C)[C@@H]1NC(=O)[C@H](C(C)C)NC(=O)[C@@H]2CCCN2C(=O)[C@H](C(C)C)NC(=O)[C@H](CCCNC(=N)N)NC(=O)[C@H](CC(=O)O)NC(=O)[C@H](Cc2ccc(O)cc2)NC(=O)CN(C)C(=O)[C@H](Cc2ccc(-c3ccccc3)cc2)NC(=O)[C@H](Cc2ccc(-c3ccccc3)cc2)NC(=O)[C@H](Cc2ccccc2)NC(=O)CSC[C@@H](C(=O)NCC(N)=O)NC(=O)[C@H](CC(C)C)NC1=O [Example 19] ({CH2CO}-F[Bip][Bip][Sar]YDRVPVILCG-NH2; thioether N-13),200 to 2000 nM
2,CC(C)C[C@@H]1NC(=O)[C@H](Cc2ccc(O)cc2)NC(=O)[C@H](C(C)C)NC(=O)[C@@H]2C[C@@H](O)CN2C(=O)[C@H](C(C)C)NC(=O)[C@@H](CCCNC(=N)N)NC(=O)[C@H](CC(=O)O)NC(=O)[C@H](Cc2ccc(O)cc2)NC(=O)CN(C)C(=O)[C@H](Cc2ccc(-c3ccccc3)cc2)NC(=O)[C@H](Cc2ccc(-c3ccccc3)cc2)NC(=O)[C@H](CN2CCOCC2)NC(=O)CSC[C@@H](C(=O)NCC(N)=O)NC1=O [Example 78] ({CH2CO}-[Ala(morpholin-4-yl)][Bip][Bip][Sar]YD[dR]V[Hyp]VYLCG-NH2; thioether N-13),50 to 200 nM
3,CC(C)C[C@@H]1NC(=O)[C@H](CCCNC(=N)N)NC(=O)[C@H](C(C)C)NC(=O)[C@@H]2CCN2C(=O)[C@H](C(C)C)NC(=O)[C@H](CCCNC(=N)N)NC(=O)[C@H](CC(=O)O)NC(=O)[C@@H]2CCCN2C(=O)CN(C)C(=O)[C@H](Cc2ccc(-c3ccccc3)cc2)NC(=O)[C@H](Cc2ccc(-c3ccccc3)cc2)NC(=O)[C@H](CN2CCOCC2)NC(=O)CSC[C@@H](C(=O)NCC(N)=O)NC1=O [Example 72] ({CH2CO}-[Ala(morpholin-4-yl)][Bip][Bip][Sar]PDRV[Aze]VRLCG-NH2; thioether N-13),50 to 200 nM
4,CC(C)C[C@@H]1NC(=O)[C@H](Cc2ccc(O)cc2)NC(=O)[C@H](C(C)C)NC(=O)CNC(=O)[C@H](C(C)C)NC(=O)[C@@H](CCCNC(=N)N)NC(=O)[C@H](CC(=O)O)NC(=O)[C@H](Cc2ccc(O)cc2)NC(=O)CN(C)C(=O)[C@H](Cc2ccc(-c3ccccc3)cc2)NC(=O)[C@H](Cc2ccc(-c3ccccc3)cc2)NC(=O)[C@H](CN2CCOCC2)NC(=O)CSC[C@@H](C(=O)NCC(N)=O)NC1=O [Example 137] ({CH2CO}-[Ala(morpholin-4-yl)][Bip][Bip][Sar]YD[dR]VGVYLCG-NH2; thioether N-13),200 to 2000 nM
5,CC(C)C[C@@H]1NC(=O)[C@H](CCCNC(=N)N)NC(=O)[C@H](C(C)C)NC(=O)[C@@H]2CCCN2C(=O)[C@H](C(C)C)NC(=O)[C@H](CCCNC(=N)N)NC(=O)[C@H](CC(=O)O)NC(=O)[C@@H]2CCCN2C(=O)CN(C)C(=O)[C@H](Cc2ccc(-c3ccccc3)cc2)NC(=O)[C@H](Cc2ccc(-c3ccccc3)cc2)NC(=O)[C@H](Cc2ccccc2)NC(=O)CSC[C@@H](C(=O)NCC(N)=O)NC1=O [Example 1] ({CH2CO}-F[Bip][Bip][Sar]PDRVPVRLCG-NH2; thioether N-13),200 to 2000 nM

# Now from value to molecule:
row,IC50,SMILES
1,< 50 nM,CC(C)C[C@@H]1NC(=O)[C@H](Cc2cccs2)NC(=O)[C@H](C(C)C)NC(=O)[C@@H]2CCCN2C(=O)[C@H](C(C)C)NC(=O)[C@@H](CCCNC(=N)N)NC(=O)[C@H](CC(=O)O)NC(=O)[C@H](Cc2ccccn2)NC(=O)CN(C)C(=O)[C@H](Cc2ccc(-c3ccc(NC(=O)c4ccc(CC(=O)O)cc4)cc3)cc2)NC(=O)[C@H](Cc2ccc(-c3ccc(C(=O)O)cc3)cc2)NC(=O)[C@H](CN2CCOCC2)NC(=O)CSC[C@@H](C(=O)NCC(N)=O)NC1=O [Example 611] ({CH2CO}-[Ala(morpholin-4-yl)][Bip(4'-COOH)][Bip(4'-NHCO-C6H4-4-CH2COOH)][Sar][2Pal]D[dR]VPV[2Thi]LCG-NH2; thioether N-13)
2,50 to 200 nM,CC[C@H](C)[C@@H]1NC(=O)[C@@H](CCCNC(=N)NCc2ccc3occc3c2)NC(=O)[C@H](CC(=O)O)NC(=O)[C@H](Cc2cnc[nH]2)NC(=O)CN(C)C(=O)[C@H](Cc2ccc(-c3ccc(NC(=O)c4cccc(CC(=O)O)c4)cc3)cc2)NC(=O)[C@H](Cc2ccc(-c3ccccc3)cc2)NC(=O)[C@H](CC2CCCCC2)NC(=O)CSC[C@@H](C(=O)NCC(N)=O)NC(=O)[C@H](CC(C)C)NC(=O)[C@H](Cc2c[nH]cn2)NC(=O)[C@H](C(C)C)NC(=O)[C@@H]2CCCN2C1=O [Example 505] ({CH2CO}-[Cha][Bip][Bip(4'-NHCO-C6H4-3-CH2COOH)][Sar]HD[X7]IPVHLCG-NH2; thioether N-13)
3,< 50 nM,CC(C)C[C@@H]1NC(=O)[C@H](Cc2ccc(O)cc2)NC(=O)[C@H](C(C)C)NC(=O)[C@@H]2COCCN2C(=O)[C@H](C(C)C)NC(=O)[C@@H](CCCNC(=N)N)NC(=O)[C@H](CC(=O)O)NC(=O)[C@H](Cc2ccc(O)cc2)NC(=O)CN(C)C(=O)[C@H](Cc2ccc(-c3ccccc3)cc2)NC(=O)[C@H](Cc2ccc(-c3ccccc3)cc2)NC(=O)[C@H](CN2CCOCC2)NC(=O)CSC[C@@H](C(=O)NCC(N)=O)NC1=O [Example 143] ({CH2CO}-[Ala(morpholin-4-yl)][Bip][Bip][Sar]YD[dR]V[Morpholine(3S-CO)]VYLCG-NH2; thioether N-13)
4,< 50 nM,CC[C@H](C)[C@@H]1NC(=O)[C@@H](CCCNC(=N)NCc2ccc3occc3c2)NC(=O)[C@H](CC(=O)O)NC(=O)[C@H](Cc2cnc[nH]2)NC(=O)CN(C)C(=O)[C@H](Cc2ccc(-c3ccc(NC(=O)c4cccc(OCC(=O)O)c4)cc3)cc2)NC(=O)[C@H](Cc2ccc(-c3ccccc3)cc2)NC(=O)[C@H](CC2CCCCC2)NC(=O)CSC[C@@H](C(=O)NCC(N)=O)NC(=O)[C@H](CC(C)C)NC(=O)[C@H](Cc2cnc[nH]2)NC(=O)[C@H](C(C)C)NC(=O)[C@@H]2CCCN2C1=O [Example 499] ({CH2CO}-[Cha][Bip][Bip(4'-NH)](Benzoyl(3-OCH2COOH))[Sar]HD[X7]IPVHLCG-NH2; thioether N-13)
5,50 to 200 nM,CC(=O)Nc1ccc(-c2ccc(C[C@@H]3NC(=O)[C@H](Cc4ccc(-c5ccccc5)cc4)NC(=O)[C@H](CC4CCCCC4)NC(=O)CSC[C@@H](C(=O)N[C@@H](CCC(=O)O)C(N)=O)NC(=O)[C@H](CC(C)C)NC(=O)[C@H](Cc4cnc[nH]4)NC(=O)[C@H](C(C)C)NC(=O)[C@@H]4CCCN4C(=O)[C@H](C(C)C)NC(=O)[C@@H](CCCNC(=N)N)NC(=O)[C@H](CC(=O)O)NC(=O)[C@H](Cc4ccc(O)cc4)NC(=O)CN(C)C3=O)cc2)cc1 [Example 249] ({CH2CO}-[Cha][Bip][Bip(4'-NHAc)][Sar]YD[dR]VPVHLCE-NH2; thioether N-13)
